Measured values as given in patent publication US9828622B2, “Photoactivatable antimicrobial agents and therapeutic and diagnostic methods of using same” (The General Hospital Corporation, priority 2008, dated 2017).
Entries after “also recorded” stand apart in the source; their conditions may differ. Read-outs that look alike come from different tables or passages of the source.

Key:
[1] = biological target: purified B. cereus beta-lactamase; assay: Competitive substrate inhibition of β-LEAP hydrolysis, purified enzyme; type: biochemical, Bacillus cereus; details: competitive beta-lactam substrate; 384 multi-well plate
Protocol: (§1) (a.) inhibition constants of a panel of β-lactams for the competitive substrate inhibition of β-LEAP hydrolysis by B. cereus β-lactamase, (b.) inhibition constants for β-LEAP hydrolysis by bacterial suspensions, (c.) inhibition profiles of panel of β-lactams for B. cereus, (d.) MICs of panel of β-lactams for B. cereus. […] Statistical significance was determined via Tukey multiple comparison test using Graphpad Prism 5. Horizontal bars connected by solid intersections indicate significant difference.
(§2) This Example describes a new methodology for use in characterizing beta-lactamases by using a competitive substrate inhibition assay. It is believed that no competitive substrate inhibition assays for determining beta-lactamase functionality are currently in use by clinical microbiology laboratories. This new approach is based on exploiting the sensitivity and mechanism of the β-LEAP compound of the invention. More in particular, this approach is based on measuring the level of induced-fluorescence caused by the cleavage/hydrolysis and consequent activation of the β-LEAP compound by beta-lactamase enzymes under evaluation while also in the presence of, or “in competition” with, different types and amounts of beta-lactamase enzyme substrates. The degree of inhibition of β-LEAP hydrolysis/fluorescence due to competition with the beta-lactam competitor substrates is determined, which provides the basis for determining beta-lactamase functionality.
(§3) This approach involved combining in a 384 multi-well assay plate format purified B. cereus beta-lactamase or bacterial suspensions with the β-LEAP of the invention and a competitive beta-lactam substrate, including amoxicillin, clavulanic acid, ampicillin, penicillin G, carbenicillin, cefazolin, cefatoxime or ceftazidime.

[2] = biological target: Bacillus cereus 5/β bacterial suspensions; assay: Competitive substrate inhibition of β-LEAP hydrolysis, bacterial suspensions; type: cell-based; details: competitive beta-lactam substrate; whole bacteria suspensions
Protocol: as §1, §2, §3

B. cereus = assay: Growth inhibition / MIC assay; type: cell-based, Bacillus cereus
Protocol: as §1, §3

[3] = Photosensitizing efficacy
Excerpt: The terminal carboxyl group with the flexible alkyl chain provides an ideal site for conjugation. 7-amino-3-chloromethyl-3-cephem-4-carboxylic acid p-methoxybenzyl ester (ACLE, commercial available) is used as cephalosporin scaffold. ACLE is a common starting material to synthesize cephalosporin derivatives. It integrates an amino group at 7-position. By replacing chlorine at 3′-position with 4-amino-thiophenol provides an additional amino group therefore each ACLE molecule can accommodate two EtNBS-COOH molecules to form a static quenching pair.

CO/N=C(\C(=O)N[C@@H]1C(=O)N2C(C(=O)O)=C(COC(C)=O)CS[C@H]12)c1csc(N)n1 [cefatoxime]
inhibition of β-LEAP hydrolysis/fluorescence (inhibition constants, Ki, FIG. 13a) [1]: more effective inhibitors
inhibition of β-LEAP hydrolysis/fluorescence (inhibition constants, Ki, FIG. 13b) [2]: more effective inhibitors

O=C(O)[C@H]1/C(=C/CO)O[C@@H]2CC(=O)N21 [clavulanic acid]
in vitro growth inhibition (MIC assay) (B. cereus): no inhibition; also recorded: did not inhibit the growth

CC1(C)S[C@@H]2[C@H](NC(=O)[C@H](N)c3ccccc3)C(=O)N2[C@H]1C(=O)O [ampicillin]
inhibition of β-LEAP hydrolysis/fluorescence (inhibition constants, Ki, FIG. 13a) [1]: detected
in vitro growth inhibition (MIC assay) (B. cereus): did not inhibit the growth
in vitro growth inhibition (MIC assay) (B. cereus; listed as ampillin): no inhibition

CC(C)(O/N=C(\C(=O)N[C@@H]1C(=O)N2C(C(=O)[O-])=C(C[n+]3ccccc3)CS[C@H]12)c1csc(N)n1)C(=O)O [ceftazidime]
inhibition of β-LEAP hydrolysis/fluorescence (inhibition constants, Ki, FIG. 13a) [1]: more effective inhibitors
inhibition of β-LEAP hydrolysis/fluorescence (inhibition constants, Ki, FIG. 13b) [2]: more effective inhibitors

CC1(C)S[C@@H]2[C@H](NC(=O)[C@H](N)c3ccc(O)cc3)C(=O)N2[C@H]1C(=O)O [amoxicillin]
inhibition of β-LEAP hydrolysis/fluorescence (inhibition constants, Ki, FIG. 13a) [1]: detected
in vitro growth inhibition (MIC assay) (B. cereus): no inhibition
in vitro growth inhibition (MIC assay) (B. cereus; listed as Amoxicillin): did not inhibit the growth

cephalothin
inhibition of β-LEAP hydrolysis/fluorescence (inhibition constants, Ki, FIG. 13a) [1]: more effective inhibitors
inhibition of β-LEAP hydrolysis/fluorescence (inhibition constants, Ki, FIG. 13b) [2]: more effective inhibitors

CCN(CC)c1ccc2nc3c(cc(NCCCCC(=O)O)c4ccccc43)[s+]c2c1 [EtNBS-COOH, 5-(4′-carboxybutylamino)-9-diethylaminobenzo[a]phenothiazine]
photosensitizing efficacy [3]: excellent photosensitizing efficacy
